Common to all, as to assay: Radioligand binding assay: inhibition of binding of 125I-GnRH-A to GnRH receptors (membranes)
The target of one assay is T1, human GnRH receptors (Homo sapiens, UniProt P30968).
T1 construct: expressed in transfected cells; host or cells: HEK 293
T1 sequence (P30968 1-328): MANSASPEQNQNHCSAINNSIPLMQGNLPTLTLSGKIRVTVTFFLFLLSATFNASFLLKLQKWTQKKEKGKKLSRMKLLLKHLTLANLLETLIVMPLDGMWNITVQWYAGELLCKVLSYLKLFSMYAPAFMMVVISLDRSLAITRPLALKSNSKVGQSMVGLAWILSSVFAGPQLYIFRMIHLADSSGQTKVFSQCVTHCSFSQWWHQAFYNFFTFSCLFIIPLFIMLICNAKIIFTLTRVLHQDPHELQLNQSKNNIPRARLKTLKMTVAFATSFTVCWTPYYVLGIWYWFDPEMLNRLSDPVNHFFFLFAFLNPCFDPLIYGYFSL
Particulars: Human GnRH receptor; competition with 125I-GnRH-A; Ki calculated from IC50 (Cheng et al.). The procedure:
(§1) HEK 293 cells stably transfected with mouse or human GnRH receptors as described above are grown in Dulbecco's high-glucose, modified Eagle's medium (DMEM) supplemented with 0.2% G418, 10% fetal bovine serum (FBS) and 100U/mL penicillin/streptomycin. GH3 cells stably transfected with the rat GnRH receptor (GGH3) were provided by Dr. William Chin (Harvard Medical School, Boston, Mass.). These cells are extensively characterized previously (Kaiser et al., 1997). The cells are grown in low glucose DMEM containing: 100U/mL penicillin/streptomycin, 0.6% G418 and 10% heat-inactivated FBS.
(§2) HEK 293 cells containing mouse or human receptors, or rat pituitaries (Pel Freez Biologicals, Rogers, Ark.) are homogenized in buffer A containing: 50 mM Tris (pH 7.4), 0.32 M sucrose, 2 mM EGTA, 1 mM PMSF, 5 μg/ml aprotinen, 5 μg/ml Pepstatin A, and 1 μg/ml leupeptin. Homogenized cells are centrifuged at 4° C. at 20,000×g for 25 minutes, re-suspended in buffer A and re-centrifuged at 4° C. at 20,000×g for an additional 25 minutes. Total membrane protein was determined with a BCA kit (Pierce, Rockford, Ill.). Membranes are stored at −70° C. at a final membrane protein concentration of approximately 5 mg/ml.
(§3) The radioiodinated agonist analog of GnRH, [des-Gly^10, D-Ala^6]GnRH ethylamide (^125I-GnRH-A), is used as the radioligand. One μg of GnRH-A diluted in 0.5 M phosphate buffer (pH 7.4) is added to an lodogen®-coated borosilicate glass tube (Pierce, Rockford, Ill.) containing 35 μl of 0.05 M phosphate buffer (pH 7.4-7.6) and 1 mCi of Na[^125I]. The reaction mixture is vortexed and incubated for 1 minute at room temperature. After one minute, the mixture is vortexed and allowed to incubate for an additional minute. 2 ml of 0.5 M acetic acid/1% BSA is added to the reaction tube and the mixture is added to a C18 Sep-Pak cartridge. The cartridge is washed with subsequent washes of 5 ml H2O and 5 ml 0.5 M acetic acid and then eluted with 5×1 ml of 60%CH3CN/40% 0.5 M acetic acid. The eluate is diluted with 3× volume of HPLC buffer A (0.1% TFA in H2O) and loaded onto a C18 column. The iodinated product is eluted over 20-25 min with a gradient of 25-100% CH3CN containing 0.1% TFA. The radioactive fractions (750 μl/fraction) are collected into clean polypropylene tubes containing 100 μl of 10% BSA. Fractions are assessed for biological activity by radiolig and binding. Specific activity of the radioligand was approximately 2200 Ci/mmol.
(§4) Membranes are diluted to 0.01-0.5 mg/ml (depending upon the species of receptor) with assay buffer containing 50 mM HEPES (pH 7.4), 1 mM EDTA, 2.5 mM MgCl2, and 0.1% BSA. Membranes (diluted to utilize similar receptor numbers between assays) are incubated with approximately 0.04-0.06 nM ^125I-GnRH-A in the presence or absence of competing agents (0.1-10,000 nM) in a total volume of 200 μl in 96-well polypropylene plates for 1 hour at room temperature. Assays are stopped by rapid filtration onto 96-well GF/C filters soaked in 0.1% polyethylenimine (PEI) utilizing a Packard 96-well cell harvester. Filters are washed three times with ice-cold PBS (50 mM NaPO4, 0.9% NaCl, 2 mM MgCl2, and 0.02% NaN3, pH 7.4). 35 μl of scintillation cocktail is added to each filter well and filters are counted on a Packard Topcount. Control dose-response curves are generated to GnRH (0.1 nM-100 nM) in each competition binding experiment. Ki values were calculated from IC50 values according to Cheng et al., Biochemical Pharmacol. 22: 3099-3108, 1973. [formula]

In another assay the target is T2, mouse GnRH receptors (Mus musculus, UniProt Q01776).
T2 construct: expressed in transfected cells; host or cells: HEK 293
T2 sequence (Q01776 1-327): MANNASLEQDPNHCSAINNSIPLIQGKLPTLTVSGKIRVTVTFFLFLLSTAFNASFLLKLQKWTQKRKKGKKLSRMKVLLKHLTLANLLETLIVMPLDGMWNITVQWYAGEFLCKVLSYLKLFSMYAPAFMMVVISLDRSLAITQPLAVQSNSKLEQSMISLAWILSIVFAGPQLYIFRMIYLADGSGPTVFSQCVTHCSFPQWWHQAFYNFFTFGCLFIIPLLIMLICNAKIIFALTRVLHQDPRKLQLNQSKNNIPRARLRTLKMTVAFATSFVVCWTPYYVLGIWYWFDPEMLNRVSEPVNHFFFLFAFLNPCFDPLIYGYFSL
As to conditions: Mouse GnRH receptor; competition with 125I-GnRH-A; Ki calculated from IC50 (Cheng et al.). The protocol:
as §1, §2, §3, §4

Another assay addresses T3, rat GnRH receptor (Rattus norvegicus, UniProt P30969).
T3 construct: rat pituitaries (Pel Freez Biologicals, Rogers, Ark.) are homogenized in buffer A; tissue Pel Freez Biologicals; host or cells: rat pituitaries
T3 sequence (P30969 1-327): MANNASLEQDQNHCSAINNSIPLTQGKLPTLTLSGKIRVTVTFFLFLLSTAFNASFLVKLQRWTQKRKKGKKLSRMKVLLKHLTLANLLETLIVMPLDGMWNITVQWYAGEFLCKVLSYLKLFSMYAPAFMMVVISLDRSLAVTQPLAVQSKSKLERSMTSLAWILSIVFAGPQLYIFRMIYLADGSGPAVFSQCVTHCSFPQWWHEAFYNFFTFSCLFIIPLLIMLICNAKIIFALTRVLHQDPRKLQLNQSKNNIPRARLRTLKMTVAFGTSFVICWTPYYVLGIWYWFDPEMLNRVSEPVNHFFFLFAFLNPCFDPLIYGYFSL
Particulars: competition with 125I-GnRH-A, Ki calculated from IC50 (Cheng et al.). The procedure:
as §1, §2, §3, §4

Results on 14 compounds are retold here after patent US6903132B2, “Non-peptide GnRH agents, pharmaceutical compositions and methods for their use” (Agouron Pharmaceuticals, Inc., priority 2002, dated 2005).

A word on the Ki: it is a measure of affinity in units of concentration, obtained from inhibition or displacement.

`Cc1ccc(C(C)(C)C)cc1Cc1ccc(C(=O)NNc2ccc3ccccc3n2)o1` [Example B3, 5-[5-(tert-butyl)-2-methylbenzyl]-N′-(2-quinolinyl)-2-furohydrazide]: the Ki at human GnRH receptors was 95 nM; on mouse GnRH receptors, 84 nM; at rat GnRH receptor it was 65 nM.

On to `Cc1cc(NNC(=O)c2ccc(Cc3cc4c(cc3Cl)C(C)(C)CCC4(C)C)o2)nc2c1c(C)nn2C` [Example C4, 5-[(3-chloro-5,5,8,8-tetramethyl-5,6,7,8-tetrahydro-2-naphthalenyl)methyl]-N′-(1,3,4-trimethyl-1H-pyrazolo[3,4-b]pyridin-6-yl)-2-furohydrazide], for which the inhibition constant Ki is 1.3 nM at human GnRH receptors, 8.2 nM at mouse GnRH receptors and 22 nM at rat GnRH receptor.

With `Cc1cc2c(cc1Cc1ccc(C(=O)NNc3ncccc3C(F)(F)F)o1)C(C)(C)CCC2(C)C` [Example C11, 5-[(3,5,5,8,8-Pentamethyl-5,6,7,8-tetrahydro-2-naphthalenyl)methyl]-N′-[3-(trifluoromethyl)-2-pyridinyl]-2-furohydrazide], the inhibition constant Ki is 63 nM at human GnRH receptors, 67 nM at mouse GnRH receptors and 84 nM on rat GnRH receptor.

Take `Cc1cc2c(cc1Cc1ccc(C(=O)NNc3ncc(C(F)(F)F)cc3Cl)o1)C(C)(C)CCC2(C)C` [Example C12, N′-[3-Chloro-5-(trifluoromethyl)-2-pyridinyl]-5-[(3,5,5,8,8-pentamethyl-5,6,7,8-tetrahydro-2-naphthalenyl)methyl]-2-furohydrazide]: the Ki on human GnRH receptors is 46 nM; at mouse GnRH receptors it was 33 nM; at rat GnRH receptor, 39 nM.

For `Cc1cc(C(F)(F)F)cc(NNC(=O)c2ccc(Cc3cc4c(cc3C)C(C)(C)CCC4(C)C)o2)n1` [Example C13, N′-[6-methyl-4-(trifluoromethyl)-2-pyridinyl]-5-[(3,5,5,8,8-pentamethyl-5,6,7,8-tetrahydro-2-naphthalenyl)methyl]-2-furohydrazide], the figures for the Ki at human GnRH receptors, at mouse GnRH receptors and at rat GnRH receptor were 220 nM, 130 nM and 240 nM, respectively.

With `Cc1cc2c(cc1Oc1oc(C(=O)NNc3cc(C)c4c(C)nn(C)c4n3)cc1Br)C(C)(C)CCC2(C)C` [Example F3, 4-Bromo-5-[(3,5,5,8,8-pentamethyl-5,6,7,8-tetrahydro-2-naphthalenyl)oxy]-N′-[1,3,4-trimethyl-1H-pyrazolo[3,4-b]pyridin-6-yl)-2-furohydrazide], the Ki is 80 nM at human GnRH receptors, 136 nM on mouse GnRH receptors and 535 nM at rat GnRH receptor.

In the case of `Cc1cc(NNC(=O)c2ccc(Oc3ccc4c(c3)C(C)(C)CCC4(C)C)o2)nc2c1c(C)nn2C` [Example F4, 5-[(5,5,8,8-tetramethyl-5,6,7,8-tetrahydro-2-naphthalenyl)oxy]-N′-(1,3,4-trimethyl-1H-pyrazolo[3,4-b]pyridin-6-yl)-2-furohydrazide], the values for the Ki on human GnRH receptors, on mouse GnRH receptors and at rat GnRH receptor were 126 nM, 450 nM and 384 nM, respectively.

In the case of `Cc1cc2c(cc1Oc1ccc(C(=O)NNc3cc(C)c4c(C)nn(C)c4n3)o1)C(C(C)C)C(C)C2(C)C` (stereo not drawn) [Example I2, 5-(3-lsopropyl-1,1,2,6-tetramethyl-indan-5-yloxy)-furan-2-carboxylic acid N′-(1,3,4-trimethyl-1H-pyrazolo[3,4-b]pyridin-6-yl)-hydrazide], the Ki was 2.4 nM at human GnRH receptors, 3.6 nM at mouse GnRH receptors and 4.2 nM on rat GnRH receptor.

Consider `Cc1cc(NNC(=O)c2ccc(Oc3cc(C(C)(C)C)ccc3Br)o2)nc2c1c(C)nn2C` [Example I6, 5-(2-Bromo-5-tert-butyl-phenoxy)-furan-2-carboxylic acid N′-(1,3,4-trimethyl-1H-pyrazolo[3,4-b]pyridin-6-yl)-hydrazide], for which the Ki is 50 nM on human GnRH receptors, 61 nM at mouse GnRH receptors and 79 nM at rat GnRH receptor.

As for `Cc1cc2c(cc1Oc1ccc(C(=O)NNc3cc(C)c4c(C)nn(C)c4n3)o1)C(C)(C)CC2` [Example I7, 5-(3,3,6-Trimethyl-indan-5-yloxy)-furan-2-carboxylic acid N′-(1,3,4-trimethyl-1H-pyrazolo[3,4-b]pyridin-6-yl)-hydrazide], the Ki at human GnRH receptors is 2.8 nM; at mouse GnRH receptors, 11 nM; on rat GnRH receptor, 17 nM.

Regarding `Cc1cc2c(c(Br)c1Oc1ccc(C(=O)NNc3cc(C)c4c(C)nn(C)c4n3)o1)C(C)(C)CCC2(C)C` [Example I8, 5-(1-Bromo-3,5,5,8,8-pentamethyl-5,6,7,8-tetrahydro-naphthalen-2-yloxy)-furan-2-carboxylic acid N′-(1,3,4-trimethyl-1H-pyrazolo[3,4-b]pyridin-6-yl)-hydrazide], the inhibition constant (Ki) on human GnRH receptors was 6.3 nM; at mouse GnRH receptors it was 16 nM; on rat GnRH receptor it was 29 nM.

Take `Cc1cc2c(cc1Oc1ccc(C(=O)NNc3ccc(C(F)(F)F)cn3)o1)C(C)(C)C(C)C2(C)C` (stereo not drawn) [Example M2, 5-(1,1,2,3,3,6-Hexamethyl-indan-5-yloxy)-furan-2-carboxylic acid N′-(5-trifluoromethyl-pyridin-2-yl)-hydrazide]: the inhibitory constant (Ki) is 19 nM on human GnRH receptors and 29 nM at rat GnRH receptor.

Consider `Cc1cc2c(cc1Oc1ccc(C(=O)NNc3ccc4ccccc4n3)o1)C(C)(C)C(C)C2(C)C` (stereo not drawn) [Example M3, 5-(1,1,2,3,3,6-Hexamethyl-indan-5-yloxy)-furan-2-carboxylic acid N′-quinolin-2-yl-hydrazide], for which the inhibition constant (Ki) on human GnRH receptors was 4.1 nM; at rat GnRH receptor, 2.9 nM.

For the compound `Cc1cc2c(cc1Oc1ccc(C(=O)NNc3ccc4ccccc4n3)o1)C(C)(C)OC2` [Example N3, 5-(3,3,6-Trimethyl-1,3-dihydro-isobenzofuran-5-yloxy)-furan-2-carboxylic acid N′-quinolin-2-yl-hydrazide], the inhibition constant (Ki) on human GnRH receptors is 130 nM; at rat GnRH receptor it was 100 nM.
